# Test results as given in ChEMBL document CHEMBL4049402, “Synthesis and cytotoxic activity of novel tetrahydrobenzodifuran-imidazolium salt derivatives” (Bioorg Med Chem Lett, 2017).
# Columns and labels:
# SMMC-7721 [1] = test: Induction of apoptosis in human SMMC7721 cells assessed as early apoptotic cells at 16 uM after 48 hrs by Annexin-V-FITC/propidium iodide staining based flow cytometry (reference value: 1.82%); format: functional
# SMMC-7721 [2] = test: Cytotoxicity against human SMMC7721 cells after 48 hrs by MTT assay; format: functional, cell-based; settings: Homo sapiens, SMMC-7721, 48 h
# SMMC-7721 [3] = test: Cell cycle arrest in human SMMC7721 cells assessed as accumulation at S phase at 2 uM after 24 hrs by propidium iodide staining based flow cytometry (reference value: 20.18 +/- 0.02%); format: functional
# SMMC-7721 [4] = test: Induction of apoptosis in human SMMC7721 cells assessed as late apoptotic cells at 8 uM after 48 hrs by Annexin-V-FITC/propidium iodide staining based flow cytometry (reference value: 2.42%); format: functional
# SMMC-7721 [5] = test: Induction of apoptosis in human SMMC7721 cells assessed as live cells at 4 uM after 48 hrs by Annexin-V-FITC/propidium iodide staining based flow cytometry (reference value: 92.6%); format: functional
# SMMC-7721 [6] = test: Induction of apoptosis in human SMMC7721 cells assessed as live cells at 8 uM after 48 hrs by Annexin-V-FITC/propidium iodide staining based flow cytometry (reference value: 92.6%); format: functional
# HL-60 = test: Cytotoxicity against human HL60 cells after 48 hrs by MTT assay; format: functional, cell-based; settings: Homo sapiens, HL-60, 48 h
# A549 = test: Cytotoxicity against human A549 cells after 48 hrs by MTT assay; format: functional, cell-based; settings: Homo sapiens, A549, 48 h
# SMMC-7721 [7] = test: Potency index, ratio of cisplatin IC50 to compound IC50 for human SMMC7721 cells; format: functional
# SMMC-7721 [8] = test: Induction of apoptosis in human SMMC7721 cells assessed as early apoptotic cells at 12 uM after 48 hrs by Annexin-V-FITC/propidium iodide staining based flow cytometry (reference value: 1.82%); format: functional
# SMMC-7721 [9] = test: Induction of apoptosis in human SMMC7721 cells assessed as live cells at 12 uM after 48 hrs by Annexin-V-FITC/propidium iodide staining based flow cytometry (reference value: 92.6%); format: functional
# SMMC-7721 [10] = test: Cell cycle arrest in human SMMC7721 cells assessed as accumulation at G0/G1 phase at 4 uM after 24 hrs by propidium iodide staining based flow cytometry (reference value: 70.12 +/- 0.18%); format: functional
# SMMC-7721 [11] = test: Induction of apoptosis in human SMMC7721 cells assessed as early apoptotic cells at 4 uM after 48 hrs by Annexin-V-FITC/propidium iodide staining based flow cytometry (reference value: 1.82%); format: functional
# MCF7 [12] = test: Potency index, ratio of cisplatin IC50 to compound IC50 for human MCF7 cells; format: functional
# SMMC-7721 [13] = test: Cell cycle arrest in human SMMC7721 cells assessed as accumulation at S phase at 4 uM after 24 hrs by propidium iodide staining based flow cytometry (reference value: 20.18 +/- 0.02%); format: functional
# SMMC-7721 [14] = test: Induction of apoptosis in human SMMC7721 cells assessed as late apoptotic cells at 4 uM after 48 hrs by Annexin-V-FITC/propidium iodide staining based flow cytometry (reference value: 2.42%); format: functional
# SMMC-7721 [15] = test: Cell cycle arrest in human SMMC7721 cells assessed as accumulation at G2/M phase at 4 uM after 24 hrs by propidium iodide staining based flow cytometry (reference value: 3.12 +/- 0.02%); format: functional
# SMMC-7721 [16] = test: Induction of apoptosis in human SMMC7721 cells assessed as late apoptotic cells at 12 uM after 48 hrs by Annexin-V-FITC/propidium iodide staining based flow cytometry (reference value: 2.42%); format: functional
# SMMC-7721 [17] = test: Cell cycle arrest in human SMMC7721 cells assessed as accumulation at G0/G1 phase at 2 uM after 24 hrs by propidium iodide staining based flow cytometry (reference value: 70.12 +/- 0.18%); format: functional
# SMMC-7721 [18] = test: Induction of apoptosis in human SMMC7721 cells assessed as necrotic cells at 8 uM after 48 hrs by Annexin-V-FITC/propidium iodide staining based flow cytometry (reference value: 3.18%); format: functional
# SMMC-7721 [19] = test: Cell cycle arrest in human SMMC7721 cells assessed as increase in G1 population after 24 hrs by propidium iodide staining based flow cytometry; format: functional
# MCF7 [20] = test: Cytotoxicity against human MCF7 cells after 48 hrs by MTT assay; format: functional, cell-based; settings: Homo sapiens, MCF7, 48 h
# SMMC-7721 [21] = test: Induction of apoptosis in human SMMC7721 cells assessed as live cells at 16 uM after 48 hrs by Annexin-V-FITC/propidium iodide staining based flow cytometry (reference value: 92.6%); format: functional
# SMMC-7721 [22] = test: Induction of apoptosis in human SMMC7721 cells assessed as necrotic cells at 16 uM after 48 hrs by Annexin-V-FITC/propidium iodide staining based flow cytometry (reference value: 3.18%); format: functional
# SW480 = test: Cytotoxicity against human SW480 cells after 48 hrs by MTT assay; format: functional, cell-based; settings: Homo sapiens, SW480, 48 h
# SMMC-7721 [23] = test: Induction of apoptosis in human SMMC7721 cells assessed as necrotic cells at 12 uM after 48 hrs by Annexin-V-FITC/propidium iodide staining based flow cytometry (reference value: 3.18%); format: functional
# SMMC-7721 [24] = test: Cell cycle arrest in human SMMC7721 cells assessed as accumulation at G2/M phase at 2 uM after 24 hrs by propidium iodide staining based flow cytometry (reference value: 3.12 +/- 0.02%); format: functional
# SMMC-7721 [25] = test: Induction of apoptosis in human SMMC7721 cells assessed as necrotic cells at 4 uM after 48 hrs by Annexin-V-FITC/propidium iodide staining based flow cytometry (reference value: 3.18%); format: functional
# SMMC-7721 [26] = test: Induction of apoptosis in human SMMC7721 cells assessed as late apoptotic cells at 16 uM after 48 hrs by Annexin-V-FITC/propidium iodide staining based flow cytometry (reference value: 2.42%); format: functional
# SMMC-7721 [27] = test: Induction of apoptosis in human SMMC7721 cells assessed as early apoptotic cells at 8 uM after 48 hrs by Annexin-V-FITC/propidium iodide staining based flow cytometry (reference value: 1.82%); format: functional
smiles,measurement,setting,value
Cc1n(Cc2c3c(cc4c2OCC4)OCC3)c2ccccc2[n+]1CC(=O)c1ccc2ccccc2c1.[Br-],Activity,SMMC-7721 [1],0.43%
same,IC50,SMMC-7721 [2],4.52 µM
same,Activity,SMMC-7721 [3],14.85%
same,Activity,SMMC-7721 [4],4.64%
same,Activity,SMMC-7721 [5],91.9%
same,Activity,SMMC-7721 [6],87.1%
same,IC50,HL-60,0.8 µM
same,IC50,A549,6.1 µM
same,Ratio IC50,SMMC-7721 [7],2.7
same,Activity,SMMC-7721 [8],0.98%
same,Activity,SMMC-7721 [9],30.7%
same,Activity,SMMC-7721 [10],79.57%
same,Activity,SMMC-7721 [11],1.43%
same,Ratio IC50,MCF7 [12],8.4
same,Activity,SMMC-7721 [13],8.75%
same,Activity,SMMC-7721 [14],3.18%
same,Activity,SMMC-7721 [15],0.94%
same,Activity,SMMC-7721 [16],37.3%
same,Activity,SMMC-7721 [17],70.58%
same,Activity,SMMC-7721 [18],7.42%
same,Activity,SMMC-7721 [19],Dose-dependent effect
same,IC50,MCF7 [20],1.65 µM
same,Activity,SMMC-7721 [21],0.69%
same,Activity,SMMC-7721 [22],6.48%
same,IC50,SW480,4.49 µM
same,Activity,SMMC-7721 [23],31%
same,Activity,SMMC-7721 [24],4.37%
same,Activity,SMMC-7721 [25],3.44%
same,Activity,SMMC-7721 [26],92.4%
same,Activity,SMMC-7721 [27],0.86%
